What was measured:
[1] = test system: Murine cultured B16 melanoma cells; assay: Melanin generation/formation suppression test based on cell culture (degree of whiteness); set-up: key: ++: distinctively stronger whiteness over the reference; +: apparently stronger whiteness over the reference; ±: slightly stronger whiteness over the reference; −: remained unchanged
[2] = test system: Murine cultured B16 melanoma cells; assay: Cell survival rate test based on cell culture (crystal violet); details: mouse, 5 days, 10 μg/mL
Procedure: (§1) Murine cultured B16 melanoma cells were used. An appropriate quantity of a 10% FBS-containing MEM medium was placed in two 6-well plates, the B16 melanoma cells were seeded therein and allowed to stand at 37° C. under a carbon dioxide concentration of 5 vol %. Next day, a sample preparation solution was added and mixed therewith so as to adjust the final concentrations of the Cistus ladaniferus L. extract obtained in Example 1, and labdenic acids and methyl esters and ethyl esters thereof obtained in Example 2 to 0 (reference), 5 and 10 μg/mL, and of lily extract (product of Maruzen Pharmaceuticals Co., Ltd.), which is a known whitening agent, to 0 and 100 μg/mL. The medium was exchanged on the fifth day of culture, and the sample preparation solution was added again. The medium was removed next day, the cells were collected from one plate after washing them using a phosphate buffer (pH7), and degree of whitening of the cultured B16 melanoma cells was evaluated according to the criteria shown below.
On the other plate, the cells were fixed with formalin, and dyed by adding an 1% crystal violet solution. Cell survival rates for the individual sample concentrations were measured using a monocellator (product of Olympus Corporation).
Murine cultured B16 melanoma cells were used. An appropriate quantity of a 10% FBS-containing MEM medium was placed in two 6-well plates, the B16 melanoma cells were seeded therein and allowed to stand at 37° C. under a carbon dioxide concentration of 5 vol %. […] The medium was removed next day, the cells were collected from one plate after washing them using a phosphate buffer (pH7), and degree of whitening of the cultured B16 melanoma cells was evaluated according to the criteria shown below.

[3] = test system: Human neonatal fibroblast NB1RGB; assay: Cell activation test based on cell culture (cell proliferation ratio)
Procedure: Human neonatal fibroblast NB1RGB was used. An appropriate quantity of medium was placed in a 24-well plate, the fibroblast NB1RGB was seeded therein and allowed to stand at 37 ° C. under a carbon dioxide concentration of 5 vol %. Next day, a sample preparation solution was added and mixed therewith so as to adjust the final concentrations of the Cistus ladaniferus L. extract obtained in Example 1, and labdenic acids and methyl esters and ethyl esters thereof obtained in Example 2 to 0 (reference), 5 and 10 μg/mL, and of Panax ginseng extract (product of Maruzen Pharmaceuticals Co., Ltd.), which is a known cell activator, to 0 and 100 μg/mL. The medium was exchanged on the fourth day of culture, and the sample preparation solution was added again. The medium was removed next day, the cells were washed using a phosphate buffer and collected, and evaluated in terms of cell proliferation rate based on comparison of the number of fibroblast NB1RGB cells grown in the individual sample preparation solutions with that of the reference. […]
The number of cells grown in each sample preparation solution was compared with the number of cells of the reference, and cell activation effect was evaluated using cell proliferation ratio as an index. The number of cells was counted using a blood cell counter plate.
Human neonatal fibroblast NB1RGB was used. An appropriate quantity of medium was placed in a 24-well plate, the fibroblast NB1RGB was seeded therein and allowed to stand at 37 ° C. under a carbon dioxide concentration of 5 vol %. Next day, a sample preparation solution was added and mixed therewith so as to adjust the final concentrations of the Cistus ladaniferus L. extract obtained in Example 1, and labdenic acids and methyl esters and ethyl esters thereof obtained in Example 2 to 0 (reference), 5 and 10 μg/mL, and of cactus extract, which is a known cell activator, to 0 and 100 μg/mL. The medium was exchanged on the fourth day of culture, and the sample preparation solution was added again. The medium was removed next day, the cells were washed using a phosphate buffer and collected, and evaluated in terms of cell proliferation rate based on comparison of the number of fibroblast NB1RGB cells grown in the individual sample preparation solutions with that of the reference.

[4] = test system: Murine cultured B16 melanoma cells; assay: Melanin generation/formation suppression test based on cell culture (degree of whiteness); set-up: key: ++: distinctively stronger whiteness over the reference; +: apparently stronger whiteness over the reference; ±: slightly stronger whiteness over the reference; −: remained unchanged; remark: listed apart in the source
Procedure: as §1, with “below. […]” for “below.”
• ++: distinctively stronger whiteness over the reference; • +: apparently stronger whiteness over the reference; • ±: slightly stronger whiteness over the reference; and • −: remained unchanged.
as §1, with “Glycyrrhiza glabra” for “lily”

[5] = final concentration 5 μg/mL + Glycyrrhiza glabra extract 100 μg/mL
[6] = final concentration 10 μg/mL, Glycyrrhiza glabra extract 0 μg/mL
[7] = final concentration 5 μg/mL + Panax ginseng extract 100 μg/mL
[8] = final concentration 5 μg/mL, additional concentration of cactus extract 100 μg/mL, vs reference
[9] = final concentration 10 μg/mL, Panax ginseng extract 0 μg/mL
[10] = final concentration 10 μg/mL, cactus extract 0 μg/mL, vs reference
[11] = final concentration 5 μg/mL + lily extract 100 μg/mL
[12] = final concentration 10 μg/mL, lily extract 0 μg/mL

Row | Structure (SMILES) | Degree of whiteness [1, 5] | Degree of whiteness [1, 6] | Cell survival rate [2] [%] | Cell-activation rate [3, 7] [%] | Cell-activation rate [3, 8] [%] | Cell-activation rate [3, 9] [%] | Cell-activation rate [3, 10] [%] | Degree of whiteness [4, 11] | Degree of whiteness [4, 12]
1 | CC1=C(CCC(C)CC(=O)O)C2(C)CCCC(C)(C)C2CC1 (stereo not drawn) [Compound 1, labd-8-en-15-oic acid] | ++ | + | 94 | 329 | 310 | 128 | 128 | ++ | +
2 | C=C1CCC2C(C)(C)CCCC2(C)C1CCC(C)CC(=O)O (stereo not drawn) [Compound 7, labd-8(17)-en-15-oic acid] | ++ | + | 98 | 333 | 170 | 135 | 135 | ++ | +
3 | CC1=CCC2C(C)(C)CCCC2(C)C1CCC(C)CC(=O)O (stereo not drawn) [Compound 4, labd-7-en-15-oic acid] | ++ | + | 93 | 322 | 315 | 130 | 130 | ++ | +

— US20060147397A1, “Composition for preparation for external use on skin and method of using the same” (Kose Corporation, priority 2002, published 2006)
